In patent US20080176936A1, “Classes of Compounds that Interact with Integrins” (priority 2005, published 2008):

How the values were obtained:
[1] = target: T1, αllbβ3 integrin (Homo sapiens, UniProt P05106+P08514); assay: ELISA: inhibition of binding of αllbβ3 integrin membrane preparation to coated extracellular matrix protein; conditions: human platelet membrane preparation
T1 construct: Human platelet membrane preparations were used as a source of αllbβ3 integrin; from tissue; host or cells: human platelets (membrane preparation)
T1 sequence (P08514 32-887 limits assumed): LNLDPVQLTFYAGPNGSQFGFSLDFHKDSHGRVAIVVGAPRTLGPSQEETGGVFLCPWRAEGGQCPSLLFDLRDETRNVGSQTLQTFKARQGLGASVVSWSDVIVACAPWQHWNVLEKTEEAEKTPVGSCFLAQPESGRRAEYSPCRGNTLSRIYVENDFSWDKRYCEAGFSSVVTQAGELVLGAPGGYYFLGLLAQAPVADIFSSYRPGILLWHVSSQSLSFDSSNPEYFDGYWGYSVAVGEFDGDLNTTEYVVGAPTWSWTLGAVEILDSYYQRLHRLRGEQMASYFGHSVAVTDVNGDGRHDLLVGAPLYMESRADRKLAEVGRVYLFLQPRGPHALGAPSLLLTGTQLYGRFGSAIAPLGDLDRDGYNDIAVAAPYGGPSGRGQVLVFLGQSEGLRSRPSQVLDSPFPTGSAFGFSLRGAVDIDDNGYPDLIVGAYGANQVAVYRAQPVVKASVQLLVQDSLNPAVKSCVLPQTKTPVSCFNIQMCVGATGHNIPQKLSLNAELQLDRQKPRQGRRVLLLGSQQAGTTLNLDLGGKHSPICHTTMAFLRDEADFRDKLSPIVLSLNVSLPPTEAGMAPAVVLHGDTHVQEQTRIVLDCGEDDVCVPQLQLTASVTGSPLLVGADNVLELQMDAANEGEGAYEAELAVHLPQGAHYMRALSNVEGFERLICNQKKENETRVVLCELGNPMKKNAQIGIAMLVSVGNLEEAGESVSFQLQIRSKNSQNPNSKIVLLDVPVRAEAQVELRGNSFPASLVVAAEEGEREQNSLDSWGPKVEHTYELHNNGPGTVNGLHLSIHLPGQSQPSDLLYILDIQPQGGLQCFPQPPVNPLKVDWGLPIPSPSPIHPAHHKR
T1 sequence (P08514 891-1039 partner limits assumed): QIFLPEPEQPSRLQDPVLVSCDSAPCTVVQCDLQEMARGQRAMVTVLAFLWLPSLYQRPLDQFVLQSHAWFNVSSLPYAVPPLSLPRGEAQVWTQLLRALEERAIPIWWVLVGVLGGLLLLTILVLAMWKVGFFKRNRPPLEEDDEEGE
T1 sequence (P05106 27-788): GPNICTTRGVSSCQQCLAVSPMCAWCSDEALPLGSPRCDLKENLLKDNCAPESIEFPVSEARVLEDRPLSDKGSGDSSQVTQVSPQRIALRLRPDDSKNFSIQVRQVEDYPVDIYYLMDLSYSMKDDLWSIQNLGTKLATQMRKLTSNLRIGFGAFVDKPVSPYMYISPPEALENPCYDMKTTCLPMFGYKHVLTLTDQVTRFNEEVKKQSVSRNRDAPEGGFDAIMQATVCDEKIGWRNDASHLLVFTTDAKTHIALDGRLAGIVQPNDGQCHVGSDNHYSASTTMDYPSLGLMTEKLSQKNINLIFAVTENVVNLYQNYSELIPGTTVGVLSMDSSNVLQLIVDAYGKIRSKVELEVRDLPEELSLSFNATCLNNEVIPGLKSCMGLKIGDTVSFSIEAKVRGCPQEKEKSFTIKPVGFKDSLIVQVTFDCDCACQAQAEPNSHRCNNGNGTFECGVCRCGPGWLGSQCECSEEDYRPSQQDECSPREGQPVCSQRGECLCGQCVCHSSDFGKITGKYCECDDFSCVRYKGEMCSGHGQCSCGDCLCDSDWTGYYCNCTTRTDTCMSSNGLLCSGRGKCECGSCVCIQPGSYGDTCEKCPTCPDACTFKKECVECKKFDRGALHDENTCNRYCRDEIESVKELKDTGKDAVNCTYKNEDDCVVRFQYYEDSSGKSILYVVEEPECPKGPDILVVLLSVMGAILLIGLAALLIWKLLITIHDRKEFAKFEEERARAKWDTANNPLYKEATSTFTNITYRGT
How it was run: (§1)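 Wells were coated with fibrinogen or vitronectin (10 µg/well), and integrin binding was measured by ELISA. αIIbβ3 came from human platelet membranes and αVβ3 from WM-115 cells, each preincubated with compound. Bound integrin was detected with a rabbit anti-β3 antibody, an HRP secondary and a colorimetric readout.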

[2] = target: T2, αVβ3 integrin (Homo sapiens, UniProt P05106+P06756); assay: ELISA: inhibition of binding of αVβ3 integrin (source WM-115 cell line) to coated extracellular matrix protein; conditions: WM-115 cell line as integrin source
T2 construct: the cell line WM-115 was used as a source of αVβ3 integrin; endogenous in cells; host or cells: WM-115 cell line
T2 sequence (P06756 31-889 limits assumed): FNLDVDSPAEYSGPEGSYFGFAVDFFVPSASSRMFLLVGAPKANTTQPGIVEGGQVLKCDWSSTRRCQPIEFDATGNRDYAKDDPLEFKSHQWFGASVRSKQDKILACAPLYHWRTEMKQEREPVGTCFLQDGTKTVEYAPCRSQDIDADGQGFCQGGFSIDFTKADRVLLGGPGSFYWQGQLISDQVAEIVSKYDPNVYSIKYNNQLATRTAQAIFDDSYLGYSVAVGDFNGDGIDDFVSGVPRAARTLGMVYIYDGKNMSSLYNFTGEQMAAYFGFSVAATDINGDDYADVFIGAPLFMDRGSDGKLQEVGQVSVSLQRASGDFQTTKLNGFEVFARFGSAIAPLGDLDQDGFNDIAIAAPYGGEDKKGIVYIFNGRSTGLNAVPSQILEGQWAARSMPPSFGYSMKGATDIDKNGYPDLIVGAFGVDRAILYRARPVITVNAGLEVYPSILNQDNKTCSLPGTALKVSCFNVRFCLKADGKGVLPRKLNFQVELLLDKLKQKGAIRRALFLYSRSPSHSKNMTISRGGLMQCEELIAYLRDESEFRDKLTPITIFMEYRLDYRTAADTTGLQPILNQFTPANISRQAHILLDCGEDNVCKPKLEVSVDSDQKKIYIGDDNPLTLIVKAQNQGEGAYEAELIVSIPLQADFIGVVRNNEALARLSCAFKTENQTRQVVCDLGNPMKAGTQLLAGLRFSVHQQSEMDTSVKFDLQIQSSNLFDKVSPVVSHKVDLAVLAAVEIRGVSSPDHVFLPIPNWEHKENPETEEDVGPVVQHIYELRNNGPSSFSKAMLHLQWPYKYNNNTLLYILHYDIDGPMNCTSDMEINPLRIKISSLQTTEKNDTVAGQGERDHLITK
T2 sequence (P06756 891-1048 partner limits assumed): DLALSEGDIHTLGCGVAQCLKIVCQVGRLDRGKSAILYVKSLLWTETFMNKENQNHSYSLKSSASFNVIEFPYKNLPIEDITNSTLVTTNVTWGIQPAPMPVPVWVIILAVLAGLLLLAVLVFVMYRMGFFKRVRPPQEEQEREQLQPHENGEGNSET
T2 sequence (P05106 27-788): as the sequence (P05106 27-788) above
How it was run: as §1

SMILES | INHIBITION @ 250 uM RECEPTOR allBb3 SUBSTRATE FIBRINOGEN [1] | INHIBITION 250 uM RECEPTOR allBb3 SUBSTRATE VITRONECTIN [1] | INHIBITION 250 uM RECEPTOR aVb3 SUBSTRATE FIBRINOGEN [2]
CCOC1O[C@H](COCC(=O)O)[C@@H](O)[C@H](OCc2ccc(Br)cc2)[C@H]1NC(=O)c1cccc(N)c1 (single isomer, unassigned) [Compound 38] | ++ (61% to 80% inhibition at 250 micromolar) | +++ (81% to 100% inhibition at 250 micromolar) | +++ (81% to 100% inhibition at 250 micromolar)
CCOC1O[C@H](COCC(=O)O)[C@@H](O)[C@H](OCc2ccccc2)[C@H]1NC(=O)c1cccc(N)c1 (single isomer, unassigned) [Compound 32] | + (36% to 60% inhibition at 250 micromolar) | +++ (81% to 100% inhibition at 250 micromolar) | − (0% to 35% inhibition at 250 micromolar)
COC1OC(COCC(=O)O)C(O)C(OCc2ccccc2)C1NC(=O)c1cc(N)cc(N)c1 (single isomer, unassigned) [Compound 131] | + (36% to 60% inhibition at 250 micromolar) | +++ (81% to 100% inhibition at 250 micromolar) | − (0% to 35% inhibition at 250 micromolar)
Nc1cccc(C(=O)NC2C(OCc3ccccc3)OC(CO)C(O)C2OCc2ccc(C(=O)O)cc2)c1 (single isomer, unassigned) [Compound 102] | − (0% to 35% inhibition at 250 micromolar) | +++ (81% to 100% inhibition at 250 micromolar) | +++ (81% to 100% inhibition at 250 micromolar)
COC1OC(COCC(=O)O)C(O)C(OCc2ccccc2)C1NC(=O)CCCN (single isomer, unassigned) [Compound 123] | + (36% to 60% inhibition at 250 micromolar) | +++ (81% to 100% inhibition at 250 micromolar) | − (0% to 35% inhibition at 250 micromolar)
N=C(N)NCCC(=O)N[C@H]1C(O)O[C@H](COCc2ccc(Br)cc2)[C@@H](O)[C@@H]1OCc1ccc(C(=O)O)cc1 (single isomer, unassigned) [Compound 63] | ++ (61% to 80% inhibition at 250 micromolar) | +++ (81% to 100% inhibition at 250 micromolar) | − (0% to 35% inhibition at 250 micromolar)
CCOC1OC(COCC(=O)O)C(O)C(OCc2ccccc2)C1NC(=O)CCN (single isomer, unassigned) [Compound 120] | + (36% to 60% inhibition at 250 micromolar) | + (36% to 60% inhibition at 250 micromolar) | − (0% to 35% inhibition at 250 micromolar)
COC1OC(COCC(=O)O)C(O)C(OCc2ccccc2)C1NC(=O)c1cc(N)cc(N)c1 (single isomer, unassigned) [Compound 130] | − (0% to 35% inhibition at 250 micromolar) | +++ (81% to 100% inhibition at 250 micromolar) | − (0% to 35% inhibition at 250 micromolar)
CCOC1O[C@H](COCc2ccc(C(=O)O)cc2)[C@@H](O)[C@H](OCc2ccc(Br)cc2)[C@H]1NC(=O)c1cccc(N)c1 (single isomer, unassigned) [Compound 41] | + (36% to 60% inhibition at 250 micromolar) | ++ (61% to 80% inhibition at 250 micromolar) | + (36% to 60% inhibition at 250 micromolar)
CCOCC1OC(OCc2ccccc2)C(NC(=O)c2ccc(C(=O)O)cc2)C(OCc2cccc(N)c2)C1O (single isomer, unassigned) [Compound 108] | − (0% to 35% inhibition at 250 micromolar) | +++ (81% to 100% inhibition at 250 micromolar) | − (0% to 35% inhibition at 250 micromolar)
Nc1cccc(COC2C(O)C(COCC(=O)O)OC(O)C2NC(=O)c2ccccc2)c1 (single isomer, unassigned) [Compound 29] | ++ (61% to 80% inhibition at 250 micromolar) | +++ (81% to 100% inhibition at 250 micromolar) | +++ (81% to 100% inhibition at 250 micromolar)
CCOCC1OC(OCc2ccccc2)C(NC(=O)c2cccc(N)c2)C(OCc2ccc(C(=O)O)cc2)C1O (single isomer, unassigned) [Compound 99] | − (0% to 35% inhibition at 250 micromolar) | ++ (61% to 80% inhibition at 250 micromolar) | − (0% to 35% inhibition at 250 micromolar)
COCC1OC(OCCNC(=N)N)C(NC(=O)c2ccccc2)C(OCc2ccc(C(=O)O)cc2)C1O (single isomer, unassigned) [Compound 115] | − (0% to 35% inhibition at 250 micromolar) | − (0% to 35% inhibition at 250 micromolar) | − (0% to 35% inhibition at 250 micromolar)
Nc1cccc(C(=O)N[C@H]2C(O)O[C@H](COCC(=O)O)[C@@H](O)[C@@H]2OCc2ccccc2)c1 (single isomer, unassigned) [Compound 33] | ++ (61% to 80% inhibition at 250 micromolar) | − (0% to 35% inhibition at 250 micromolar) | − (0% to 35% inhibition at 250 micromolar)
CCOC1OC(COCc2ccccc2)C(O)C(OCc2cccc(N)c2)C1NC(=O)c1ccc(C(=O)O)cc1 (single isomer, unassigned) [Compound 68] | − (0% to 35% inhibition at 250 micromolar) | ++ (61% to 80% inhibition at 250 micromolar) | ++ (61% to 80% inhibition at 250 micromolar)
N=C(N)NCCC(=O)N[C@H]1C(O)O[C@H](COCc2ccccc2)[C@@H](O)[C@@H]1OCc1ccc(C(=O)O)cc1 (single isomer, unassigned) [Compound 59] | + (36% to 60% inhibition at 250 micromolar) | +++ (81% to 100% inhibition at 250 micromolar) | +++ (81% to 100% inhibition at 250 micromolar)
